# Experimental data reported in the supplement of paper PMC11208160.
# Assay: recombinant barcode read abundance after kanamycin selection (control-corrected) (log10(CPM+1)); higher = more efficient recombination; sequences stand for … in AGTGCAGAGAAAATCGGCCAGTTTTCTCTGCCTGCAGTCCGCATGCCGT…ATTTATGCAGCGGACTGCCTTTCTCCCAAAGTGATAAACCGGACAGTATCATGGACCGGTTTTCCCGGTAATCCGTATTTGCAAGGTTGGTTTCACT; site = the 11-nt target
# In short: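 In E. coli, a pooled library matched targets to IS621 bridge RNA target-binding loops and was introduced alongside a donor plasmid. Cells went onto chloramphenicol/ampicillin/kanamycin with 0.1 mM IPTG or onto chloramphenicol/ampicillin LB agar as control, in duplicate. Recombination efficiency, from recombinant-junction barcodes as counts per million, is averaged and control-corrected. It is reported as log10(CPM+1).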
row,Sequence,recombinant barcode read abundance (log10)
1,"GAGTCCTGCTGGGTTCTAACCTGTTGCCTGC [GAGTCCTCTAG_LTGcore_GC_RTGcore_GC] (site GAGTCCTCTAG) (LTG core: GC, RTG core: GC)",0.333
2,"AGTCTTATTTGGGTTCTAACCTGTTGCCAAG [AGTCTTACTTG_LTGcore_TT_RTGcore_CT] (site AGTCTTACTTG) (LTG core: TT, RTG core: CT)",0.137
3,"TAAGAATCTTGGGTTCTAACCTGTTGCCTCG [TAAGAATCTAG_LTGcore_CT_RTGcore_CG] (site TAAGAATCTAG) (LTG core: CT, RTG core: CG)",1.61
4,"TGTATTCCCTGGGTTCTAACCTGTTGCCTAG [TGTATTCCTAG_LTGcore_CC_RTGcore_CT] (site TGTATTCCTAG) (LTG core: CC, RTG core: CT)",0.168
5,"TGTATTCCTTGGGTTCTAACCTGTTGCCTCG [TGTATTCCTAG_LTGcore_CT_RTGcore_CG] (site TGTATTCCTAG) (LTG core: CT, RTG core: CG)",0.161
6,"ATGTCCCCTTGGGTTCTAACCTGTTGCTCCT [ATGTCCCCTGA_LTGcore_CT_RTGcore_AG] (site ATGTCCCCTGA) (LTG core: CT, RTG core: AG)",0.205
7,"TAGAGGGCTTGGGTTCTAACCTGTTGCGGCC [TAGAGGGCTCC_LTGcore_CT_RTGcore_GG] (site TAGAGGGCTCC) (LTG core: CT, RTG core: GG)",0.0898
8,"ACGGGACCGTGGGTTCTAACCTGTTGCAGCG [ACGGGACCTCT_LTGcore_CG_RTGcore_CG] (site ACGGGACCTCT) (LTG core: CG, RTG core: CG)",0.086
9,"GCGGGACCTTGGGTTCTAACCTGTTGCCTTT [GCGGGACCTAG_LTGcore_CT_RTGcore_AA] (site GCGGGACCTAG) (LTG core: CT, RTG core: AA)",0.927
10,"AGTCTTAGGTGGGTTCTAACCTGTTGCCACC [AGTCTTACTTG_LTGcore_GG_RTGcore_GG] (site AGTCTTACTTG) (LTG core: GG, RTG core: GG)",0.274
11,"AGGAGGTGCTGGGTTCTAACCTGTTGCCTGC [AGGAGGTCTAG_LTGcore_GC_RTGcore_GC] (site AGGAGGTCTAG) (LTG core: GC, RTG core: GC)",0.911
12,"AGGCGGGGCTGGGTTCTAACCTGTTGCGGGC [AGGCGGGCTCC_LTGcore_GC_RTGcore_GC] (site AGGCGGGCTCC) (LTG core: GC, RTG core: GC)",0.0608
13,"ATGTCCCGGTGGGTTCTAACCTGTTGCTCCC [ATGTCCCCTGA_LTGcore_GG_RTGcore_GG] (site ATGTCCCCTGA) (LTG core: GG, RTG core: GG)",0.109
14,"GTCGCCCGATGGGTTCTAACCTGTTGCTAAG [GTCGCCCCTTA_LTGcore_GA_RTGcore_CT] (site GTCGCCCCTTA) (LTG core: GA, RTG core: CT)",0
15,"AAACACAATTGGGTTCTAACCTGTTGCCTAG [AAACACACTAG_LTGcore_AT_RTGcore_CT] (site AAACACACTAG) (LTG core: AT, RTG core: CT)",0.375
16,"TGTATTCAATGGGTTCTAACCTGTTGCCTAG [TGTATTCCTAG_LTGcore_AA_RTGcore_CT] (site TGTATTCCTAG) (LTG core: AA, RTG core: CT)",0.0633
17,"GGGCGTGTATGGGTTCTAACCTGTTGCCTTA [GGGCGTGCTAG_LTGcore_TA_RTGcore_TA] (site GGGCGTGCTAG) (LTG core: TA, RTG core: TA)",0.36
18,"GGGCGGACTTGGGTTCTAACCTGTTGCGGTA [GGGCGGACTCC_LTGcore_CT_RTGcore_TA] (site GGGCGGACTCC) (LTG core: CT, RTG core: TA)",0.0865
19,"TCGCGACCTTGGGTTCTAACCTGTTGCCGTA [TCGCGACCTCG_LTGcore_CT_RTGcore_TA] (site TCGCGACCTCG) (LTG core: CT, RTG core: TA)",0.0883
20,"GCGGGACCATGGGTTCTAACCTGTTGCCTAG [GCGGGACCTAG_LTGcore_CA_RTGcore_CT] (site GCGGGACCTAG) (LTG core: CA, RTG core: CT)",0.909
21,"ATGTCCCGCTGGGTTCTAACCTGTTGCTCAG [ATGTCCCCTGA_LTGcore_GC_RTGcore_CT] (site ATGTCCCCTGA) (LTG core: GC, RTG core: CT)",0
22,"CGGTCCCTGTGGGTTCTAACCTGTTGCCAAG [CGGTCCCCTTG_LTGcore_TG_RTGcore_CT] (site CGGTCCCCTTG) (LTG core: TG, RTG core: CT)",0.0242
23,"AGGCCTCATTGGGTTCTAACCTGTTGCCTAT [AGGCCTCCTAG_LTGcore_AT_RTGcore_AT] (site AGGCCTCCTAG) (LTG core: AT, RTG core: AT)",0.0616

row,Sequence,recombinant barcode read abundance (log10)
1,"GAGCCCACTTGGGTTCTAACCTGTTGCCTCG [GAGCCCACTAG_LTGcore_CT_RTGcore_CG] (site GAGCCCACTAG) (LTG core: CT, RTG core: CG)",0.1
2,"GCGGGACAATGGGTTCTAACCTGTTGCCTTT [GCGGGACCTAG_LTGcore_AA_RTGcore_AA] (site GCGGGACCTAG) (LTG core: AA, RTG core: AA)",0.119
3,"GAGTCCACTTGGGTTCTAACCTGTTGCGTAA [GAGTCCACTAC_LTGcore_CT_RTGcore_TT] (site GAGTCCACTAC) (LTG core: CT, RTG core: TT)",0.027
4,"GGGAGCCCCTGGGTTCTAACCTGTTGCTGGG [GGGAGCCCTCA_LTGcore_CC_RTGcore_CC] (site GGGAGCCCTCA) (LTG core: CC, RTG core: CC)",0.0526
5,"AGGAGGTTTTGGGTTCTAACCTGTTGCCTAA [AGGAGGTCTAG_LTGcore_TT_RTGcore_TT] (site AGGAGGTCTAG) (LTG core: TT, RTG core: TT)",0.218
6,"GAGCCCACTTGGGTTCTAACCTGTTGCCTTA [GAGCCCACTAG_LTGcore_CT_RTGcore_TA] (site GAGCCCACTAG) (LTG core: CT, RTG core: TA)",0.296
7,"GTCGCCCGGTGGGTTCTAACCTGTTGCTACC [GTCGCCCCTTA_LTGcore_GG_RTGcore_GG] (site GTCGCCCCTTA) (LTG core: GG, RTG core: GG)",0.458
8,"TGATACCCTTGGGTTCTAACCTGTTGCGTAT [TGATACCCTAC_LTGcore_CT_RTGcore_AT] (site TGATACCCTAC) (LTG core: CT, RTG core: AT)",0.624
9,"AGGAGGTTCTGGGTTCTAACCTGTTGCCTAG [AGGAGGTCTAG_LTGcore_TC_RTGcore_CT] (site AGGAGGTCTAG) (LTG core: TC, RTG core: CT)",0.0562
10,"CGGTCCCCTTGGGTTCTAACCTGTTGCCACC [CGGTCCCCTTG_LTGcore_CT_RTGcore_GG] (site CGGTCCCCTTG) (LTG core: CT, RTG core: GG)",0.18
11,"CGGTCCCTATGGGTTCTAACCTGTTGCCATA [CGGTCCCCTTG_LTGcore_TA_RTGcore_TA] (site CGGTCCCCTTG) (LTG core: TA, RTG core: TA)",0.282
12,"GGGCGGACTTGGGTTCTAACCTGTTGCGGCG [GGGCGGACTCC_LTGcore_CT_RTGcore_CG] (site GGGCGGACTCC) (LTG core: CT, RTG core: CG)",0.232
13,"AAACACACGTGGGTTCTAACCTGTTGCCTCG [AAACACACTAG_LTGcore_CG_RTGcore_CG] (site AAACACACTAG) (LTG core: CG, RTG core: CG)",0.296
14,"AAACACAAATGGGTTCTAACCTGTTGCCTAG [AAACACACTAG_LTGcore_AA_RTGcore_CT] (site AAACACACTAG) (LTG core: AA, RTG core: CT)",0.0621
15,"CGAGCCCATTGGGTTCTAACCTGTTGCTGAT [CGAGCCCCTCA_LTGcore_AT_RTGcore_AT] (site CGAGCCCCTCA) (LTG core: AT, RTG core: AT)",0.0704
16,"GGGCGTGCGTGGGTTCTAACCTGTTGCCTAG [GGGCGTGCTAG_LTGcore_CG_RTGcore_CT] (site GGGCGTGCTAG) (LTG core: CG, RTG core: CT)",0.0925
17,"GGGCGGACTTGGGTTCTAACCTGTTGCGGCC [GGGCGGACTCC_LTGcore_CT_RTGcore_GG] (site GGGCGGACTCC) (LTG core: CT, RTG core: GG)",0.0677
18,"GAGGCCTCTTGGGTTCTAACCTGTTGCCAGG [GAGGCCTCTTG_LTGcore_CT_RTGcore_CC] (site GAGGCCTCTTG) (LTG core: CT, RTG core: CC)",0.236
19,"AAACAGTTCTGGGTTCTAACCTGTTGCCTAG [AAACAGTCTAG_LTGcore_TC_RTGcore_CT] (site AAACAGTCTAG) (LTG core: TC, RTG core: CT)",0.0714
20,"GGCTCCCCTTGGGTTCTAACCTGTTGCGGGC [GGCTCCCCTCC_LTGcore_CT_RTGcore_GC] (site GGCTCCCCTCC) (LTG core: CT, RTG core: GC)",0.112
21,"CATATTAAGTGGGTTCTAACCTGTTGCCTAG [CATATTACTAG_LTGcore_AG_RTGcore_CT] (site CATATTACTAG) (LTG core: AG, RTG core: CT)",0.0215
22,"TAAGAATCCTGGGTTCTAACCTGTTGCCTAG [TAAGAATCTAG_LTGcore_CC_RTGcore_CT] (site TAAGAATCTAG) (LTG core: CC, RTG core: CT)",0.193
